What all share (type): cell-based
Test [1] concerns the target T1, CYP716A141 (Platycodon grandiflorus, UniProt A0A1I9Q5Z0).
T1 construct: full-length ORF (RACE), expressed in Saccharomyces cerevisiae with GgBAS and M. truncatula reductase MTR1; b33 once misprints C. asiatica
T1 sequence (A0A1I9Q5Z0 1-481): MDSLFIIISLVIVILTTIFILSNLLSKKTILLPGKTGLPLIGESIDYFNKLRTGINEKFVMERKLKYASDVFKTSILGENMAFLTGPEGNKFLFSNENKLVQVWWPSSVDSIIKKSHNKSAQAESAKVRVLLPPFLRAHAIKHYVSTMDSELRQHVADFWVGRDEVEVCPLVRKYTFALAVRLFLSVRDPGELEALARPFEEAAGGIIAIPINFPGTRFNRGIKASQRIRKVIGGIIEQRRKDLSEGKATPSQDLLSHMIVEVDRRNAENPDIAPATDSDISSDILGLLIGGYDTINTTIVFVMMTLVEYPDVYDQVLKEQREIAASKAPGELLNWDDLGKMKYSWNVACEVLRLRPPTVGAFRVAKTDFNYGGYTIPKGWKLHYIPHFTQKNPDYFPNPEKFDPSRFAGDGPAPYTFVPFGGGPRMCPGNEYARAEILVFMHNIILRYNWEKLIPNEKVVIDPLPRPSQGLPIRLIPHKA
Nature of the test: GC-MS of engineered yeast medium; product NMR. The following applies: co-expressed GgBAS and MTR1; product 16β-hydroxy β-amyrin (minor erythrodiol, oleanolic acid).

Test [2] addresses T2, CYP716A110 (Aquilegia coerulea, UniProt A0A1I9Q5Z9).
T2 construct: full-length ORF from cDNA, expressed in Saccharomyces cerevisiae with GgBAS and M. truncatula reductase MTR1
T2 sequence (A0A1I9Q5Z9 1-480): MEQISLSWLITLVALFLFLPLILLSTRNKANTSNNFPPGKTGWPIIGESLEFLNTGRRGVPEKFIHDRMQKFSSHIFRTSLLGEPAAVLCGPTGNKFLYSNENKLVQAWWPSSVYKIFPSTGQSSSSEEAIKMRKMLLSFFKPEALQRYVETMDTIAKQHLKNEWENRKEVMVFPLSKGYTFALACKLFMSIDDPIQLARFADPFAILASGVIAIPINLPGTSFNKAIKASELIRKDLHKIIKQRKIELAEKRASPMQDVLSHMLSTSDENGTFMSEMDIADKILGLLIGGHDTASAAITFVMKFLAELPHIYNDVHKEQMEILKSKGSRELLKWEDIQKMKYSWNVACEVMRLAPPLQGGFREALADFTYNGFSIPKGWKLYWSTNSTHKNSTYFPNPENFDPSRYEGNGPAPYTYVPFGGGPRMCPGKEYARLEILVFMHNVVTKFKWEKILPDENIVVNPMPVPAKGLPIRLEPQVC
Nature of the test: GC-MS of products in spent medium of engineered yeast. The following applies: co-expressed GgBAS and MTR1; products erythrodiol, oleanolic acid.

In test [3] the target is T3, CYP716A86 (Centella asiatica, UniProt A0A1I9Q5Y3).
T3 construct: full-length ORF from cDNA library, expressed in Saccharomyces cerevisiae with GgBAS and M. truncatula reductase MTR1
T3 sequence (A0A1I9Q5Y3 1-482): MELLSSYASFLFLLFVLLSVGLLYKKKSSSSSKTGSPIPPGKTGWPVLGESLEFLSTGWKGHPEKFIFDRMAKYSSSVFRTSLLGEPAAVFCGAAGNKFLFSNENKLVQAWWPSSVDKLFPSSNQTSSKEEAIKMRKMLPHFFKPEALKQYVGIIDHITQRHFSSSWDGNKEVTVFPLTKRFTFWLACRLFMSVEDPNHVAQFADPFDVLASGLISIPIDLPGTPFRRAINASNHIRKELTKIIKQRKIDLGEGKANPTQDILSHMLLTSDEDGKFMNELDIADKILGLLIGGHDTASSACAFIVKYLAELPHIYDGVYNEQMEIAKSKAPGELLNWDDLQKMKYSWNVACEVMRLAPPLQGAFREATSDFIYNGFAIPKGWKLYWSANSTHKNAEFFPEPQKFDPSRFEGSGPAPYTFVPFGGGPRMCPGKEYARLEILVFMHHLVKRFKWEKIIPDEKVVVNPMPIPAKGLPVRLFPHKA
The test is described as above. The settings on record: co-expressed GgBAS and MTR1; products erythrodiol, oleanolic aldehyde, oleanolic acid.

Test [4] deals with T4, CYP716A140 (Platycodon grandiflorus, UniProt A0A1I9Q5Y8).
T4 construct: full-length ORF (RACE), expressed in Saccharomyces cerevisiae with GgBAS and M. truncatula reductase MTR1
T4 sequence (A0A1I9Q5Y8 1-479): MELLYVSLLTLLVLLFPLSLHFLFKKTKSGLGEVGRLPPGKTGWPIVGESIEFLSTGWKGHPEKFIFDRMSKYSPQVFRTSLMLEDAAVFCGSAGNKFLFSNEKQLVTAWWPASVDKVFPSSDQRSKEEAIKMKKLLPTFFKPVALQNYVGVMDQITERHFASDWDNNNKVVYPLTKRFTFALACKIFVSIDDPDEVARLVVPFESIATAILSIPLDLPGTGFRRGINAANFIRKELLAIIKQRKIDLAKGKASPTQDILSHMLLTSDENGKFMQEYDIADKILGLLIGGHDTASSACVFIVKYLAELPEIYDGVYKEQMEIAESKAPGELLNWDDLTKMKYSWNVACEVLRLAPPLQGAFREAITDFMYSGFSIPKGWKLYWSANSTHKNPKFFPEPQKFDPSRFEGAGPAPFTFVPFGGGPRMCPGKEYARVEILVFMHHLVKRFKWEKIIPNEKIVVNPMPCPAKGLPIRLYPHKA
The description is as above. The settings on record: co-expressed GgBAS and MTR1; products of C-28 oxidation: erythrodiol, oleanolic acid.

Test [5] has as its target T5, CYP716A83 (Centella asiatica, UniProt A0A1I9Q5Y4).
T5 construct: full-length ORF from cDNA library, expressed in Saccharomyces cerevisiae with GgBAS (or CaDDS) and M. truncatula reductase MTR1; T2A polyprotein with CYP716C11 in some strains
The description is as above.

The target in test [6] is T6, CYP716A113v1 (Aquilegia coerulea, UniProt A0A1I9Q601).
T6 construct: full-length ORF from cDNA, expressed in Saccharomyces cerevisiae with tomato SlCAS and M. truncatula reductase MTR1
T6 sequence (A0A1I9Q601 1-485): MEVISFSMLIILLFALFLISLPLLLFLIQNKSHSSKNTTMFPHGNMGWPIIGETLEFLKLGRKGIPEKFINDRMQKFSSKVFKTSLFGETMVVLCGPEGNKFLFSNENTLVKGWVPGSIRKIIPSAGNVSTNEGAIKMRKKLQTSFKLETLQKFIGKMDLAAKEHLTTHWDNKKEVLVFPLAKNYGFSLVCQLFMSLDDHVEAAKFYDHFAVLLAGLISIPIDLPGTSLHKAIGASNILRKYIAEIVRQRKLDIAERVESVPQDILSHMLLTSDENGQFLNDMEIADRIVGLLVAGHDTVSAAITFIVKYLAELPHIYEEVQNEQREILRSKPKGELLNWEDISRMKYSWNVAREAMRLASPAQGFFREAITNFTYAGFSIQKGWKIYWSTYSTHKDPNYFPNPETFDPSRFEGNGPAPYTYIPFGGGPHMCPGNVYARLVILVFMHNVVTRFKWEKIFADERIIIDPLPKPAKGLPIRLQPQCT
Described as above. The settings on record: co-expressed SlCAS and MTR1; putative hydroxy-cycloartenol product.

The target in test [7] is T7, CYP716C11 (Centella asiatica, UniProt A0A1I9Q5Y7).
T7 construct: gene MAA45; full-length ORF from cDNA library, expressed in Saccharomyces cerevisiae with GgBAS (or CaDDS), CYP716A83 and M. truncatula reductase MTR1; T2A polyprotein CYP716A83-CYP716C11
T7 sequence (A0A1I9Q5Y7 1-475): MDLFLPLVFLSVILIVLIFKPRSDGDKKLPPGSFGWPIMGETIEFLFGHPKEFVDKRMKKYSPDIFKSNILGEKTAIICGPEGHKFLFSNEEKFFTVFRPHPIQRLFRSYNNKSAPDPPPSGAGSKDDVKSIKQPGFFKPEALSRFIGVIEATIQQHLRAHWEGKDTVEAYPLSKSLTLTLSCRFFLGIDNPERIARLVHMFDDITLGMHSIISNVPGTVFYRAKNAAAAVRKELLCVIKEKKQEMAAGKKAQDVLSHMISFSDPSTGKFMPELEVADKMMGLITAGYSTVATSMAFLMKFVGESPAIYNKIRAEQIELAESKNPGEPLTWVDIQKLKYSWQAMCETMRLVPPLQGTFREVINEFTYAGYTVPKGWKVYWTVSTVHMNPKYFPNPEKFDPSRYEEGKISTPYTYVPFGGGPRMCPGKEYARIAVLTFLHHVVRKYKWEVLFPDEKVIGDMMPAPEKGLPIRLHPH
Described as above. The settings on record: co-expressed GgBAS, CYP716A83 and MTR1; product maslinic acid.

Test [8] concerns the target T8, CYP716E41 (Centella asiatica, UniProt A0A1I9Q5Y6).
T8 construct: full-length ORF from cDNA library, expressed in Saccharomyces cerevisiae with GgBAS, CYP716A83 and M. truncatula reductase MTR1
T8 sequence (A0A1I9Q5Y6 1-477): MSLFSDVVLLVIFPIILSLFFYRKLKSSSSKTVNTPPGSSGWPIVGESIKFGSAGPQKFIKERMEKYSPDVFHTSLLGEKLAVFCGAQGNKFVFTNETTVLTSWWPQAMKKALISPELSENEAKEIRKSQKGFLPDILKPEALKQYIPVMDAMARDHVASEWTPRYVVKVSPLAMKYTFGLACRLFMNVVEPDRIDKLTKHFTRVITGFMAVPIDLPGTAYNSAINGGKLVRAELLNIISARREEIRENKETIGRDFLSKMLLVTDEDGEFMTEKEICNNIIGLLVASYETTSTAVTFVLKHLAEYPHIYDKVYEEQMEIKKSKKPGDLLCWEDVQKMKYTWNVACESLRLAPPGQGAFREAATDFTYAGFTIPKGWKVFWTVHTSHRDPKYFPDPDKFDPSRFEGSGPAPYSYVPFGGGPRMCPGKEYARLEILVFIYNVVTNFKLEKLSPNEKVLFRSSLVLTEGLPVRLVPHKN
The description is as above. The settings on record: co-expressed GgBAS, CYP716A83 and MTR1; putative product 6β-hydroxy oleanolic acid.

The results in this text go back to publication PMC5303825, “The ancient CYP716 family is a major contributor to the diversification of eudicot triterpenoid biosynthesis” (Nature Communications, 2017).

The structures appear in SMILES notation.

T5 sequence (A0A1I9Q5Y4 entry or part of it): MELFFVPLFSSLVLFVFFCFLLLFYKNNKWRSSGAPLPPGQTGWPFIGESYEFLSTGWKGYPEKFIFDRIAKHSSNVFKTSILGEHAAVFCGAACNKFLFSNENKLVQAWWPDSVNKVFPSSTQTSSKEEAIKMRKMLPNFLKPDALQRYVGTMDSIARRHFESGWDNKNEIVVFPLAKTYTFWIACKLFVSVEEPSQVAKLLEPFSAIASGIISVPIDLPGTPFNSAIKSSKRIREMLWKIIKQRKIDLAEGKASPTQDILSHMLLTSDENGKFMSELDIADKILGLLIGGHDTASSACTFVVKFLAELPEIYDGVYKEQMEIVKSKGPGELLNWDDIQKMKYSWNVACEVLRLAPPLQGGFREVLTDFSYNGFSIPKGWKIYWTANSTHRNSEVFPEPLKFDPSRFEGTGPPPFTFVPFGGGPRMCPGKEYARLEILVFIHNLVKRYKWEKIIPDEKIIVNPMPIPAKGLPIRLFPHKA

With `CC1(C)CC[C@]2(C)CC[C@]3(C)C(=CC[C@@H]4[C@@]5(C)CC[C@H](O)C(C)(C)[C@@H]5CC[C@]43C)[C@@H]2C1` [β-amyrin], in test [1], the “GC-MS of engineered yeast medium; product NMR” value was “CYP716A141 appears to be a multifunctional β-amyrin oxidase”. Also, the “GC-MS of products in spent medium of engineered yeast” value (from here on “GC-MS of products”) is “CYP716A110 revealed new peaks corresponding to the erythrodiol and oleanolic acid standards” in test [2]; “CYP716A83 and CYP716A86 catalyse the three-step oxidation of β-amyrin at the C-28 position” in test [3]; “CYP716A140-expressing yeast showed three new peaks corresponding to C-28 oxidation” in test [4]; “CYP716A83 and CYP716A86 catalyse the three-step oxidation of β-amyrin at the C-28 position” in test [5] (co-expressed GgBAS and MTR1, in vivo, products erythrodiol, oleanolic aldehyde, oleanolic acid).

For `C[C@H]1[C@H](C)CC[C@]2(C)CC[C@]3(C)C(=CC[C@@H]4[C@@]5(C)CC[C@H](O)C(C)(C)[C@@H]5CC[C@]43C)[C@H]12` [α-amyrin], the “GC-MS of products” value in test [5] (co-expressed CaDDS and MTR1 (with CYP716E41 or CYP716C11), product ursolic acid) is “CYP716A83, CYP716C11 and CYP716E41 can function on both oleanane and ursane backbones”.

As to `CC(C)=CCC[C@@H](C)[C@H]1CC[C@@]2(C)[C@@H]3CC[C@H]4C(C)(C)[C@@H](O)CC[C@@]45C[C@@]35CC[C@]12C` [cycloartenol], the “GC-MS of products” value in test [6] was “dependent on both SlCAS and CYP716A113v1”.

Turning to `CC1(C)CC[C@]2(C(=O)O)CC[C@]3(C)C(=CC[C@@H]4[C@@]5(C)CC[C@H](O)C(C)(C)[C@@H]5CC[C@]43C)[C@@H]2C1` [oleanolic acid], the “GC-MS of products” value was “CYP716C11 and CYP716E41 converted oleanolic acid to maslinic acid” in test [7]; “CYP716C11 and CYP716E41 converted oleanolic acid to maslinic acid” in test [8].
